This is an account of results in US5656613A, “Treatment of hyperandrogenic conditions” (Merck & Co., Inc., priority 1995, dated 1997).

The subject of experiment [1] is dihydrotestosterone. Particulars: clinical trials, cited from earlier work.
Experiment [2] deals with T1, human prostate (type 2) isozyme of 5α-reductase (Homo sapiens, UniProt P31213).
T1 sequence (P31213 1-254): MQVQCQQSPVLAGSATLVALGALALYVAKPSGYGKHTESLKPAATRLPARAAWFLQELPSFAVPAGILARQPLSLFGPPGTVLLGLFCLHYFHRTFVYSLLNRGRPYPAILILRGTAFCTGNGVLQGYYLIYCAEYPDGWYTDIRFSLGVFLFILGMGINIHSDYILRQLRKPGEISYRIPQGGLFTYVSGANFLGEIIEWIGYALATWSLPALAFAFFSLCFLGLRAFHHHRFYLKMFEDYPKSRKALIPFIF
Procedure: The rate constant for dissociation of the enzyme-inhibitor complex was determined from the rate of release of radioactivity from enzyme-[^3 H]finasteride complex in the presence of 100-fold excess unlabeled finasteride. The enzyme-[^3 H]finasteride complex was formed in a solution containing excess enzyme: 21.9 nM enzyme (6 mg protein, ~0.04% pure, taken from the relatively homogeneous 100,000×g supernatant fraction). […] After 2 hours, exchange was initiated by making the solution 933 nM in unlabeled finasteride (including 1% ethanol). The solution was divided into aliquots (100 μL) which were incubated at 37° C.; each day a sample was removed and frozen away at -80° C. for future determination of bound and free inhibitor.
To obtain sufficient transformed inhibitor for mass spectral analysis, a preparation of baculovirus-expressed enzyme was employed that consisted of all protein sedimenting between 1,000 to 100,000×g. […] The solution was then dialyzed overnight at 4° C. in 14,000 Da cutoff dialysis tubing (SPECTRAPOR 2) against 2 changes of 4L water containing 1 mM MOPS and 1 mM EDTA at pH 7.20.

The target of experiment [3] is T1, human prostate (type 2) isozyme of 5α-reductase. Briefly: Slow-binding / fixed-time inhibition of human prostate (type 2) 5α-reductase by finasteride. The class given is biochemical. Set-up: host or cells: native human prostate tissue or recombinant from a baculovirus expression system; considered interchangeable. The protocol:
(§1) When tissue extracts were the source of enzyme, the quenched reactions were clarified by centrifugation at 10,000×g before analysis.
Where indicated, measurements were also conducted under conditions that have more traditionally been employed for this enzyme at pH 5.50 and 37° C.
The enzyme was either used directly as a crude cell homogenate, or isolated as microsomal suspensions by differential centrifugation. In general, the tissue or cell pellet was combined with an equal volume of buffer and dispersed using a high shear force homogenizer (POLYTRON, high speed) for several minutes in an ice bath below 10° C. […] Saturating levels of cofactor were usually included to improve enzyme stability.
(§2) The human isozymes were employed exclusively in this research. The native isozymes were from scalp (type 1 ) or prostate (type 2) tissues, and the recombinant forms were produced by a baculovirus expression system. Except where specified, all data refer to the prostate (type 2) isozyme, the primary target of finasteride. All of the experiments described in this application were also conducted with the recombinant type 1 isozyme, either in parallel or for confirmation.
(§3) The data for slow-binding inhibition were analyzed as reviewed by Morrison et al., Adv. Enzymol. 61:201-301 (1988). The kinetic model is shown in the Description of the Invention. The time courses were fit to an integrated first-order rate equation (Equation 1), where A is product concentration, .nu.o is the initial velocity, .nu.s is the infinite-time velocity, and kobs is the first-order rate constant for progression of the enzyme between the two equilibrium states.
vo =kcat (E)(S)/(Km (1+([…]))+S) Equation 2
The rate constant for conversion of the weak complex to the high-affinity one, k2, was obtained by nonlinear regression to Equation 3, which also is a function of Ki.
[(I/Ki)/(1+(S/Km)+(I/Ki)]Equation 3

Experiment [4] shares this target. Briefly: Dissociation of enzyme-[^3 H]finasteride complex (release of radioactivity), type 2. In kind it is binding. Set-up: host or cells: native human prostate tissue or recombinant from a baculovirus expression system; considered interchangeable. Particulars: 21.9 nM enzyme, 9.33 nM [^3 H]finasteride, 466 μM NADPH, pH 7.2, 37° C. The protocol:
(§4) The concentrations of bound and free radioactivity were determined by ultrafiltration on 10,000 Da cutoff membranes (AMICON, Centricon-10), which were centrifuged several hours at 4° C.
(§5) Nonspecific binding was assessed by reversing the order of addition, first blocking the […] with excess unlabeled inhibitor before addition of […].

The target is the same in experiment [5]. Nature of the experiment: Release of radiolabel on denaturation of enzyme-[^3 H]finasteride complex. The class given is binding. More on the design: host or cells: native human prostate tissue or recombinant from a baculovirus expression system; considered interchangeable. The protocol: as §4, §5
The target is the same in experiment [6]. More on the design: host or cells: native human prostate tissue or recombinant from a baculovirus expression system; considered interchangeable. Particulars: cited from earlier work.
For experiment [7], the target named is T2, human skin (type 1) isozyme of 5α-reductase (Homo sapiens, UniProt P18405).
T2 construct: made in house
T2 sequence (P18405 1-259): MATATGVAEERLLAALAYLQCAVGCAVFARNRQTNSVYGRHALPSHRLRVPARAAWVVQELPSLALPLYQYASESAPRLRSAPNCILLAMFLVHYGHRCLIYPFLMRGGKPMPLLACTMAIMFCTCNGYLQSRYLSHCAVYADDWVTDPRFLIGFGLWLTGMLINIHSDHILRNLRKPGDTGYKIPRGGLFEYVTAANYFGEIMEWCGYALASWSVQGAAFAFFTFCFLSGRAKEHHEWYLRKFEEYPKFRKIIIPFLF
Particulars: cited from earlier work.

Experiment [8] concerns the target T2, human skin (type 1) isozyme of 5α-reductase. Briefly: Inhibition of human skin (type 1) 5α-reductase by finasteride. The class given is biochemical. The settings on record: type 1, from ratio of rate constants; read-out: steady-state Ki *.
Excerpt: as §1, §2, §3

Entries after “also recorded” stand apart in the source; their conditions may differ. Where two headings read alike, the source gives them in different places.

Take `CC(C)(C)NC(=O)[C@H]1CC[C@H]2[C@@H]3CC[C@H]4NC(=O)C=C[C@]4(C)[C@H]3CC[C@]12C` [Compound 1, 17β-(N-tert-butylcarbamoyl)-3-oxo-4-aza-5α-androst-1-ene-3-one]: in experiment [1] (Stoner, Gormley et al.), the “time for dihydrotestosterone to return to basal levels after withdrawal” value was “two”. Besides, the “reduction of dihydrotestosterone levels” value in experiment [1] (circulating concentrations comparable to Ki) was “reduced levels of dihydrotestosterone to values approaching those found in individuals genetically deficient in the prostate isozyme”. In addition, the “inhibition on complex formation” value in experiment [2] (1.39 μM enzyme, 1.14 μM finasteride, 573 μM NADPH, pH 7.20, 45 min) came out at 73%; in experiment [4], 36%. Also, in experiment [2] (off-rate experiment, one month), the “[^3 H]-1,2-dihydrofinasteride as share of free tritium released from the [^3 H]finasteride-enzyme complex” value is listed as over 95%. Besides, in experiment [2] (off-rate experiment, one month), the “untransformed [^3 H]finasteride released” value is “no untransformed [^3 H]finasteride was detected”. The “halflife for dissociation (or turnover) of enzyme-inhibitor complex, predicted from association rate” value in experiment [3] (37° C., assuming Ki * <100 pM) was over 6 h. Also, the “halflife of conversion to high-affinity complex” value in experiment [3] (assuming minimum Ki) is under 30 s. Also, in experiment [3] (lowest practical concentrations of finasteride (2 nM)), the “suppression of activity at infinite time” value was “nearly complete suppression of the activity”. The “Ki for the preliminary complex (theoretical line, minimum value)” value in experiment [3] (type 2) is reported as 100 nM. Moreover, the Ki in experiment [3] (type 2 enzyme, read-out: overall equilibrium constant Ki *) is under 0.1 nM; in experiment [6] (Faller et al., native human prostate enzyme, pH 7.0, read-out: dissociation constant Ki), over 150 nM; in experiment [6] (human prostate enzyme, as first perceived in fixed-time assays, read-out: Ki (simple, rapidly-reversible inhibitor)), 26 nM; in experiment [6] (read-out: Ki of essentially irreversible enzyme-inhibitor complex, Faller et al., human prostate isozyme) it was under 1 nM; in experiment [7] (skin (type 1) isozyme, Tian et al., read-out: Ki of preliminary weak complex), 360 nM; in experiment [8] it was under 0.2 nM. Also, the “radiolabel released on denaturation” value was over 99% in experiment [5] (7M guanidine hydrochloride); over 77% in experiment [5] (45% aqueous ethanol); over 96% in experiment [5] (boiling water bath, 2 minutes). Moreover, the “mode of inhibition” value in experiment [6] (fixed-time assays, previously shown) is “competitive with testosterone”. In experiment [6] (prostate), the “inhibition of type 2 isozyme” value is on record as “potently inhibited by finasteride”. In addition, the “second-order rate constant for formation of complex” value in experiment [7] (skin (type 1) isozyme, Tian et al.) was 4000 M⁻¹ s⁻¹. In addition, the “inhibition of type 1 isozyme” value in experiment [7] (skin, listed as finasteride) is given as “not a significant inhibitor of human skin (type 1 ) isozyme at doses employed in the treatment of BPH; also recorded: relatively insensitive to finasteride”.
